Measurements from patent US7150974B1, “Parathyroid hormone receptor binding method” (The General Hospital Corporation, priority 1991, dated 2006).
Entries after “also recorded” stand apart in the source; their conditions may differ.

Experiments:
Type in all cases: cell-based
[1] = biological target: T1, opossum kidney PTH/PTHrP receptor clone, OK-H (Didelphis virginiana, UniProt P25107, I132F/S86P); assay: Inositol phosphate metabolism, COS cells expressing OK-H; details: FIG. 15, listed as NlePTH
T1 construct: expressed in transfected cells; host or cells: COS cells, transient, plasmid OK-H (pcDNA I)
T1 sequence (P25107 other isoform, or with tags, fused parts or gaps S86P/I132F): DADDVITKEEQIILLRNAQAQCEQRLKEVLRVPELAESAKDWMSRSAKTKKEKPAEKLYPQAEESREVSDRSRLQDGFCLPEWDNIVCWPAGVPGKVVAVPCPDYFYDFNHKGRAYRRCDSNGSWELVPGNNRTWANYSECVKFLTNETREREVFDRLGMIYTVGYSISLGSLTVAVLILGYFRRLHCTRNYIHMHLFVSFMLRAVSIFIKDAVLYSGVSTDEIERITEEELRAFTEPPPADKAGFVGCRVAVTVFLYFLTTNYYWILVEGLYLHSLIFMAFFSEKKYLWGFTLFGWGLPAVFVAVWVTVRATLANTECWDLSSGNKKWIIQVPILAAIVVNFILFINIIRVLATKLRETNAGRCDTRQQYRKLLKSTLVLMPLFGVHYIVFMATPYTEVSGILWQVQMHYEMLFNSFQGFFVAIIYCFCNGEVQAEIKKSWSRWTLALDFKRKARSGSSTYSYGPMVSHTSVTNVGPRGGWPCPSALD

[2] = biological target: T2, rat bone PTH/PTHrP receptor (Rattus norvegicus, UniProt P25961, E586G); assay: Inositol phosphate metabolism, COS cells expressing R15B; details: FIG. 15
T2 construct: expressed in transfected cells; host or cells: COS / COS-7 cells, transient, plasmid R15B (pcDNA I)
T2 sequence (P25961 27-591 E586G): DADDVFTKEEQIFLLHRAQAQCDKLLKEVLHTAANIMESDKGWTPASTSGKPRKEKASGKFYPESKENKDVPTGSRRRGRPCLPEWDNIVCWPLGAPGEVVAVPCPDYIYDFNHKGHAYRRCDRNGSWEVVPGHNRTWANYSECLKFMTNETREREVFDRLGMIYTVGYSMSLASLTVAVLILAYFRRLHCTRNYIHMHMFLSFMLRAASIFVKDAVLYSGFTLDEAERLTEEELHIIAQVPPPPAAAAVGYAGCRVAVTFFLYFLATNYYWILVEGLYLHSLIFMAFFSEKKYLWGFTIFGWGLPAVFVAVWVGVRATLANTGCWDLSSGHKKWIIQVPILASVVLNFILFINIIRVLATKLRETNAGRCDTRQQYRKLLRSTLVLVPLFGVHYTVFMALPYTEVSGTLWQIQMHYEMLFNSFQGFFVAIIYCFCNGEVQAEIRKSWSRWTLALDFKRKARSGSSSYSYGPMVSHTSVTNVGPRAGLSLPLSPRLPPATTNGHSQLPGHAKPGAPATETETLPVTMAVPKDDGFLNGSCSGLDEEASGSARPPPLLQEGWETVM

[3] = biological target: T2, rat bone PTH/PTHrP receptor; assay: cAMP accumulation, COS cells expressing R15B
Method: (§1) Intracellular cAMP accumulation was measured as described previously (Abou-Samra et al., J. Biol. Chem. 262:1129, 1986). Cells in 24-well plates were rinsed with culture medium containing 0.1% BSA and 2 mM IBMX. […] The supernatant was removed and the cells immediately frozen by placing the whole plate in dry ice powder. Intracellular cAMP was extracted by thawing the cells in 1 ml of 50 mM HCl and analyzed by a specific radioimmunoassay using an anti-cAMP antibody (e.g., Sigma, St. Louis, Mo.). A cAMP analog (2′-O-monosuccinyl-adenosine 3′:5′-cyclic monophosphate tyrosyl methyl ester, obtained from Sigma) which was used a tracer for cAMP was iodinated by the chloramine T method. Free iodine was removed by adsorbing the iodinated cAMP analog onto a C18 Sep-pak cartridge (Waters, Milford, Mass.). After washing with dH2O, the iodinated cAMP analog was eluted from the Sep-pak Cartridge with 40% acetonitrille (ACN) and 0.1% trifluoroacetic acid (TFA). The iodinated cAMP analog was lyophilized, reconstituted in 1 ml 0.1% TFA, and injected into a C18 reverse phase HPLC column (Waters). The column was equilibrated with 10% ACN in 0.1% TFA, and eluted with gradient of 10-30% ACN in 0.1% TFA. This allows separation of the mono-iodinated cAMP analog from the non-iodinated cAMP analog. […] The standard used for the assay, adenosine 3′:5′-cyclic monophosphate, was purchased from Sigma. […]

[4] = biological target: T3, human kidney PTH/PTHrP receptor (Homo sapiens, UniProt Q03431, L389Q); assay: cAMP accumulation, COS-7 cells expressing human kidney receptor; details: COS-7 cells expressing human receptor, FIG. 18
T3 construct: The full-length human kidney PTH/PTHrP receptor cDNA, HKrk, was constructed using the BamHI/PvuII fragment of PCR clone #2 and HK-2; expressed in transfected cells; host or cells: COS-7 cells, transient (DEAE/Dextran), pcDNAI
T3 sequence (Q03431 27-593 L389Q): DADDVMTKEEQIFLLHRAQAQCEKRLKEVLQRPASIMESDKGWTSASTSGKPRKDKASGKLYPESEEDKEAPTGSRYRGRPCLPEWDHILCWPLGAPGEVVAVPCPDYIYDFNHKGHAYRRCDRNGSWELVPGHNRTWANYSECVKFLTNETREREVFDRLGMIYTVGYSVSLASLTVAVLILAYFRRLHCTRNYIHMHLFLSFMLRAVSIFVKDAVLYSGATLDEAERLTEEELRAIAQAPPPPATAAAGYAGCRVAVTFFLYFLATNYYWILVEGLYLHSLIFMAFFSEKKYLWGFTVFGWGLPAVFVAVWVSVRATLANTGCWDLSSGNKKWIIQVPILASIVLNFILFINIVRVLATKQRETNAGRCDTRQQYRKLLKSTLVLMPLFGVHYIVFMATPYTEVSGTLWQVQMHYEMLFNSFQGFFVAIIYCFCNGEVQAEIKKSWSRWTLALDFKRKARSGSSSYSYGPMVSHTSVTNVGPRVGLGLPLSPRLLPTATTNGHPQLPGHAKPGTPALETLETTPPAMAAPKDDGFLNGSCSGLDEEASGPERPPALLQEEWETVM
Method: as §1

## [Nle^8,18, Tyr^34]bPTH(1-34)amide
[1]
  inositol phosphate metabolism (IP3 and IP2 accumulation): do not show a detectable increase; also recorded: did not show any detectable increase
[2]
  inositol phosphate metabolism (IP3 and IP2 accumulation): rapid increase
[3]; COS cells expressing R15B, FIG. 16
  cAMP accumulation: increase cAMP accumulation
[3]; COS-7 cells expressing rat receptor
  cAMP accumulation, PTH(1-34) compared with PTHrP(1-36): to the same extent
[4]
  cAMP accumulation, PTH(1-34) compared with PTHrP(1-36): to the same extent
